From US9586936B2, “Heteroarylamine derivatives as protein kinase inhibitors” (KOREA INSTITUTE OF SCIENCE AND TECHNOLOGY, priority 2014, dated 2017)

How the values were obtained:
Assay in all cases: kinase inhibition activity, full kinase panel
Assay type in all cases: biochemical
Conditions in all cases: 1 μM of the compound; read-out: kinase activity inhibited (% inhibition)
[1] = molecular target: (Homo sapiens, UniProt P09769)
Method: (§1) In order to measure the inhibition activity (% inhibition) of the compound of the present invention against protein kinases, a biochemical assay was conducted using a full kinase panel consisting of 340 kinases. As a representative compound of the present invention, N-(2,6-dichloro-3,5-dimethoxyphenyl)-1-(6-((4-(4-ethylpiperazin-1-yl)phenyl)amino)pyrimidin-4-yl)-1H-benz[d]imidazol-2-amine synthesized in Example 1 was used.
(§2) The kinases whose activity is inhibited by 50% or more when treated with 1 μM of the compound of Example 1 are listed in Table 1.

ABL2 = ABL2 (Homo sapiens, UniProt P42684)
Method: as §1, §2

ACK1 = ACK1 (Homo sapiens, UniProt Q07912)
Method: as §1, §2

ALK = ALK (Homo sapiens, UniProt Q9UM73)
Method: as §1, §2

BLK = BLK (Homo sapiens, UniProt P51451)
Method: as §1, §2

BMX = BMX (Homo sapiens, UniProt P51813)
Method: as §1, §2

DDR1 = DDR1 (Homo sapiens, UniProt Q08345)
Method: as §1, §2

DDR2 = DDR2 (Homo sapiens, UniProt Q16832)
Method: as §1, §2

DYRK1 = DYRK1 (Homo sapiens, UniProt Q13627)
Method: as §1, §2

DYRK1B = DYRK1B (Homo sapiens, UniProt Q9Y463)
Method: as §1, §2

DYRK2 = DYRK2 (Homo sapiens, UniProt Q92630)
Method: as §1, §2

EGFR = EGFR (Homo sapiens, UniProt P00533)
Method: as §1, §2

FGFR1 = FGFR1 (Homo sapiens, UniProt P11362)
Method: as §1, §2

FGFR2 = FGFR2 (Homo sapiens, UniProt P21802)
Method: as §1, §2

FGFR3 = FGFR3 (Homo sapiens, UniProt P22607)
Method: as §1, §2

FGFR4 = FGFR4 (Homo sapiens, UniProt P22455)
Method: as §1, §2

FLT3 = FLT3 (Homo sapiens, UniProt P36888)
Method: as §1, §2

FLT4 = FLT4 (Homo sapiens, UniProt P35916)
Method: as §1, §2

FMS = FMS (Homo sapiens, UniProt P07333)
Method: as §1, §2

Fyn = Fyn (Homo sapiens, UniProt P06241)
Method: as §1, §2

HER2 = HER2 (Homo sapiens, UniProt P04626)
Method: as §1, §2

Hck = Hck (Homo sapiens, UniProt P08631)
Method: as §1, §2

LCK = LCK (Homo sapiens, UniProt P06239)
Method: as §1, §2

LIMK1 = LIMK1 (Homo sapiens, UniProt P53667)
Method: as §1, §2

LYN = LYN (Homo sapiens, UniProt P07948)
Method: as §1, §2

LYN B = LYN B (Homo sapiens, UniProt P07948)
Method: as §1, §2

MAP4K5 = MAP4K5 (Homo sapiens, UniProt Q9Y4K4)
Method: as §1, §2

MEKK2 = MEKK2 (Homo sapiens, UniProt Q9Y2U5)
Method: as §1, §2

MEKK3 = MEKK3 (Homo sapiens, UniProt Q99759)
Method: as §1, §2

ROS = ROS (Homo sapiens, UniProt P08922)
Method: as §1, §2

SIK1 = SIK1 (Homo sapiens, UniProt P57059)
Method: as §1, §2

SIK2 = SIK2 (Homo sapiens, UniProt Q9H0K1)
Method: as §1, §2

SIK3 = SIK3 (Homo sapiens, UniProt Q9Y2K2)
Method: as §1, §2

TAOK1 = TAOK1 (Homo sapiens, UniProt Q7L7X3)
Method: as §1, §2

TAOK2 = TAOK2 (Homo sapiens, UniProt Q9UL54)
Method: as §1, §2

TIE2 = TIE2 (Homo sapiens, UniProt Q02763)
Method: as §1, §2

TNK1 = TNK1 (Homo sapiens, UniProt Q13470)
Method: as §1, §2

TRKA = TRKA (Homo sapiens, UniProt P04629)
Method: as §1, §2

YES = YES (Homo sapiens, UniProt P07947)
Method: as §1, §2

c-Kit = c-Kit (Homo sapiens, UniProt P10721)
Method: as §1, §2

c-Src = c-Src (Homo sapiens, UniProt P12931)
Method: as §1, §2

Sequence of TIE2 (Q02763 23-1124): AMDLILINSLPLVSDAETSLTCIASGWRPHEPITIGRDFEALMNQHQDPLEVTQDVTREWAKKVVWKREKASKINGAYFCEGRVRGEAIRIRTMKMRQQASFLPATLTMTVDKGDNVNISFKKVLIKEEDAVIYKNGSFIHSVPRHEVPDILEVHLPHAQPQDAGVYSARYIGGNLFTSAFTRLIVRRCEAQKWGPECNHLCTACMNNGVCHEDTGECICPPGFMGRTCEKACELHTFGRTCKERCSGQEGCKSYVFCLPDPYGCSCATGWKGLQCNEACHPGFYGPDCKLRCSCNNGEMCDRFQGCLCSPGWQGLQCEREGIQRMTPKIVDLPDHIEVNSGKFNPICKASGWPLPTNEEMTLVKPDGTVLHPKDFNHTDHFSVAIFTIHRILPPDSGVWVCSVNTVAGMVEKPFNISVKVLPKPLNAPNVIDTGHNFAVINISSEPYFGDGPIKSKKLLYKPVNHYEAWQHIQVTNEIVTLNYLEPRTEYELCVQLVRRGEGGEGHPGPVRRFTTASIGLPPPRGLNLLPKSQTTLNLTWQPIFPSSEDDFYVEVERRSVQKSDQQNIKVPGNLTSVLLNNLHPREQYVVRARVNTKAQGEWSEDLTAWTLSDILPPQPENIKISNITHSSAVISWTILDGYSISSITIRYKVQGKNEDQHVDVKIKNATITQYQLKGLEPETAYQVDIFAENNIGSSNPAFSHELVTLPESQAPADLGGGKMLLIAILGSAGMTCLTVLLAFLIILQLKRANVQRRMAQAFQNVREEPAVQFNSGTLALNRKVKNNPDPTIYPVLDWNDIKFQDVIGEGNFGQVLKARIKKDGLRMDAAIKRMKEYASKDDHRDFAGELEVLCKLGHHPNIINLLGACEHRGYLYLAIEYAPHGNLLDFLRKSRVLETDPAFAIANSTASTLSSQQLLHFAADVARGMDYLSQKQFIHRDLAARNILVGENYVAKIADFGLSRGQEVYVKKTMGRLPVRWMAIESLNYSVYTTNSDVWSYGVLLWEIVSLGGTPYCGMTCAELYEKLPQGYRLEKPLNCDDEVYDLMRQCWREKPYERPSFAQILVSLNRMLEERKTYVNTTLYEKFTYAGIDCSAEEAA
Sequence of FLT3 (P36888 27-993): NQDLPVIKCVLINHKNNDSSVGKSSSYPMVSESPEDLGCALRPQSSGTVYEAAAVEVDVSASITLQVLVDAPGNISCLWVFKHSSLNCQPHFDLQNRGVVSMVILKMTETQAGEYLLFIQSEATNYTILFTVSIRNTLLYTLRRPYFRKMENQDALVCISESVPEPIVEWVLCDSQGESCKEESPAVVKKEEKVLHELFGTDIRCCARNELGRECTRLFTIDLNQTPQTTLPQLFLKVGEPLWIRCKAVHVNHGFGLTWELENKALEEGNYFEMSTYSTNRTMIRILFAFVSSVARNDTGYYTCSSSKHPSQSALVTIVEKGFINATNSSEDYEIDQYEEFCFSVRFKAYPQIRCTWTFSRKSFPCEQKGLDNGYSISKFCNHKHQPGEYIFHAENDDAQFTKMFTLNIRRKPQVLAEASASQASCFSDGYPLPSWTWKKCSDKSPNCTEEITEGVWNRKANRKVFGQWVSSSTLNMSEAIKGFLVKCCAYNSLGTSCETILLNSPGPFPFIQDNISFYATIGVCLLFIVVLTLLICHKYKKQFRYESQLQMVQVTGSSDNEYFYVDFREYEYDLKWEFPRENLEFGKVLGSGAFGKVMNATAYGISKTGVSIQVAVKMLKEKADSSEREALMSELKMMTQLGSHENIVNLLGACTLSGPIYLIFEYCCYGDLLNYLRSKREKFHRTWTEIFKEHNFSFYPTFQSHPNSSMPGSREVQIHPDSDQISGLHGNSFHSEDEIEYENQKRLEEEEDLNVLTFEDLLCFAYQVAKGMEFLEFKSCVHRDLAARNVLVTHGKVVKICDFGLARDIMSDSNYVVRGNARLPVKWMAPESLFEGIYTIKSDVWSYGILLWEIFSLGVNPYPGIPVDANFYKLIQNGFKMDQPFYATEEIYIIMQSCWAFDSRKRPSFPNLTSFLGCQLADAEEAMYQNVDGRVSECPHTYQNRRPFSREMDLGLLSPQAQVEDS
Sequence of c-Kit (P10721 26-976): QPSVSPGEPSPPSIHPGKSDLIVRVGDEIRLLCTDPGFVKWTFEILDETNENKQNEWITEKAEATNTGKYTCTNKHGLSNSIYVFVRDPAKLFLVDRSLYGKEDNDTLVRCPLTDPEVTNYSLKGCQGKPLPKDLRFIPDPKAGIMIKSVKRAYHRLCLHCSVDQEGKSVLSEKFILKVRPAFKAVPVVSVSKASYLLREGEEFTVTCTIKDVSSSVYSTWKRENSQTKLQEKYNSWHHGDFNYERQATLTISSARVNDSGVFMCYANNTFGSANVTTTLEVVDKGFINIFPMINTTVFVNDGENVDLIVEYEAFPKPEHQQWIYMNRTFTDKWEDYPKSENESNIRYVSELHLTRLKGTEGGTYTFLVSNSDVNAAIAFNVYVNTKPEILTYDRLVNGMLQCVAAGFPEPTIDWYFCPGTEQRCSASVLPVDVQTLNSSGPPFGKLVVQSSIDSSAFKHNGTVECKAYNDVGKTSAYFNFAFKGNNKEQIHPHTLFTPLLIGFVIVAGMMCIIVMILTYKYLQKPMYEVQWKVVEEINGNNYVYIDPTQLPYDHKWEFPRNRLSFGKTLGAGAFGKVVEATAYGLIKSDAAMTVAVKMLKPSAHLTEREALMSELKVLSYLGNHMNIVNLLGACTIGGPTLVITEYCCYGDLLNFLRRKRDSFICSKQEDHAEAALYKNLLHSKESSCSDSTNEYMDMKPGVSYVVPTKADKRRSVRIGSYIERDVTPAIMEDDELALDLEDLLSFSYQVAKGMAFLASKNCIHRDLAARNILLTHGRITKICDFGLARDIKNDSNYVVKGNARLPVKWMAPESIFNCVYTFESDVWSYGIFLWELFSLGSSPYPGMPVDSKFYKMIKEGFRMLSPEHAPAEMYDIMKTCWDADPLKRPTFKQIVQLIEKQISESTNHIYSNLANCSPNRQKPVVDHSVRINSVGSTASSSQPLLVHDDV
Sequence of MAP4K5 (Q9Y4K4 whole entry): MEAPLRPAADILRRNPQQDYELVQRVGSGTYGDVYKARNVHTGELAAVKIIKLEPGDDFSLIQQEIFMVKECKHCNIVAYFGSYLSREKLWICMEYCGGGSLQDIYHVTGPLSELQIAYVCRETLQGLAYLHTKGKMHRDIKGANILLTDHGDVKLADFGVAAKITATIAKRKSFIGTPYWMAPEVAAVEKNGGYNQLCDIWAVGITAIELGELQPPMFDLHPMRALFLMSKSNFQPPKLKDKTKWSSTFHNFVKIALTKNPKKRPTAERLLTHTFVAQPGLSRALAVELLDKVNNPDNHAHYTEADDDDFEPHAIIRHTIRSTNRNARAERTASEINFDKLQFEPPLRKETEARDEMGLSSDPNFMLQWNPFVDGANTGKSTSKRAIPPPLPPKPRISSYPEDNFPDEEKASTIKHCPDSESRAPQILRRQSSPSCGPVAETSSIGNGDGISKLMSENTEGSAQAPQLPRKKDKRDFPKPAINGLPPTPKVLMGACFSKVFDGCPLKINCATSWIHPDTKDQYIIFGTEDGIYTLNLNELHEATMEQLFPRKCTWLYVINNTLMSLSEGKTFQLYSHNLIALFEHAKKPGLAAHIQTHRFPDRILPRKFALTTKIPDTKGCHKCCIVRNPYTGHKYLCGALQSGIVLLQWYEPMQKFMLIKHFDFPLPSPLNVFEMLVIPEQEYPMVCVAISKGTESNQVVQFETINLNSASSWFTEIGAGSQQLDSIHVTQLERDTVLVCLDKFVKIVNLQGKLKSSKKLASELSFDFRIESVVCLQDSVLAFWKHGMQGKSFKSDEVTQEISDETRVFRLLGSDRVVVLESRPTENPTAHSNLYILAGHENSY
Sequence of MEKK3 (Q99759 whole entry): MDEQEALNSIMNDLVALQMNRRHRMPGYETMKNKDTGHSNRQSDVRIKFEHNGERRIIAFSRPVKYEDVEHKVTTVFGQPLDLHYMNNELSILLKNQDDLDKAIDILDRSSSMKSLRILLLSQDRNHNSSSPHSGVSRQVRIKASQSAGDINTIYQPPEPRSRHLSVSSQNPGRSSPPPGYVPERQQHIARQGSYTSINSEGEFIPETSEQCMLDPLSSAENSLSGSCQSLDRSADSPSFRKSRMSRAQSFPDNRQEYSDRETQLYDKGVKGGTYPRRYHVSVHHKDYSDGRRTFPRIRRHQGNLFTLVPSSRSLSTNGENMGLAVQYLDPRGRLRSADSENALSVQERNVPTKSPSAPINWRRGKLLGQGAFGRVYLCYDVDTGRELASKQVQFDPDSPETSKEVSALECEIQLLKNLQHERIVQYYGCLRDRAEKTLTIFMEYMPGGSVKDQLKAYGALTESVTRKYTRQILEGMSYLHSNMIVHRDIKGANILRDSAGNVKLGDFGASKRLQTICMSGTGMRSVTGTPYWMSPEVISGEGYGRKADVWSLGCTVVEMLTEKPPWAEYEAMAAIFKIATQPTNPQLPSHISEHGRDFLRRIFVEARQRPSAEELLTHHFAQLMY
Sequence of DYRK2 (Q92630 whole entry): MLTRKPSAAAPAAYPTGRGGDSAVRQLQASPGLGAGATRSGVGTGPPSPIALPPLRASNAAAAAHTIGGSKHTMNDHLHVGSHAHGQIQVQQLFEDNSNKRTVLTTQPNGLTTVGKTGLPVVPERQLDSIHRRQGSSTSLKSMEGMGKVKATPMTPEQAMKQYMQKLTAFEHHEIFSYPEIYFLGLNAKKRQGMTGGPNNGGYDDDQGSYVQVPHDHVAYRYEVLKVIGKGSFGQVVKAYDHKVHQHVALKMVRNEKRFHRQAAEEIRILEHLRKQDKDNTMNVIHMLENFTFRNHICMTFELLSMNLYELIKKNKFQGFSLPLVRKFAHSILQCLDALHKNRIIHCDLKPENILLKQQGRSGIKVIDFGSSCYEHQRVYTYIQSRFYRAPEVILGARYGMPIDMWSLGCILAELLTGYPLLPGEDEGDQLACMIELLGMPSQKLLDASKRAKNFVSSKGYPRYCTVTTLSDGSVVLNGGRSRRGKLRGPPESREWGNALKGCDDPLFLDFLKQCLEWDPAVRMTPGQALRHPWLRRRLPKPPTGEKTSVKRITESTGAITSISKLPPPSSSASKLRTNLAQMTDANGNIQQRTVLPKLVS

inhibition at 1 µM [1]: ≥ 50% | inhibition at 1 µM (ABL2): ≥ 50% | inhibition at 1 µM (ACK1): ≥ 50% | inhibition at 1 µM (ALK): ≥ 50% | inhibition at 1 µM (BLK): ≥ 50% | inhibition at 1 µM (BMX): ≥ 50% | inhibition at 1 µM (DDR1): ≥ 50% | inhibition at 1 µM (DDR2): ≥ 50% | inhibition at 1 µM (DYRK1): ≥ 50% | inhibition at 1 µM (DYRK1B): ≥ 50% | inhibition at 1 µM (DYRK2): ≥ 50% | inhibition at 1 µM (EGFR): ≥ 50% | inhibition at 1 µM (FGFR1): ≥ 50% | inhibition at 1 µM (FGFR2): ≥ 50% | inhibition at 1 µM (FGFR3): ≥ 50% | inhibition at 1 µM (FGFR4): ≥ 50% | inhibition at 1 µM (FLT3): ≥ 50% | inhibition at 1 µM (FLT4): ≥ 50% | inhibition at 1 µM (FMS): ≥ 50% | inhibition at 1 µM (Fyn): ≥ 50% | inhibition at 1 µM (HER2): ≥ 50% | inhibition at 1 µM (Hck): ≥ 50% | inhibition at 1 µM (LCK): ≥ 50% | inhibition at 1 µM (LIMK1): ≥ 50% | inhibition at 1 µM (LYN): ≥ 50% | inhibition at 1 µM (LYN B): ≥ 50% | inhibition at 1 µM (MAP4K5): ≥ 50% | inhibition at 1 µM (MEKK2): ≥ 50% | inhibition at 1 µM (MEKK3): ≥ 50% | inhibition at 1 µM (ROS): ≥ 50% | inhibition at 1 µM (SIK1): ≥ 50% | inhibition at 1 µM (SIK2): ≥ 50% | inhibition at 1 µM (SIK3): ≥ 50% | inhibition at 1 µM (TAOK1): ≥ 50% | inhibition at 1 µM (TAOK2): ≥ 50% | inhibition at 1 µM (TIE2): ≥ 50% | inhibition at 1 µM (TNK1): ≥ 50% | inhibition at 1 µM (TRKA): ≥ 50% | inhibition at 1 µM (YES): ≥ 50% | inhibition at 1 µM (c-Kit): ≥ 50% | inhibition at 1 µM (c-Src): ≥ 50%
Compound: CCN1CCN(c2ccc(Nc3cc(-n4c(Nc5c(Cl)c(OC)cc(OC)c5Cl)nc5ccccc54)ncn3)cc2)CC1 [Example 1, N-(2,6-dichloro-3,5-dimethoxyphenyl)-1-(6-((4-(4-ethylpiperazin-1-yl)phenyl)amino)pyrimidin-4-yl)-1H-benz[d]imidazol-2-amine]
